Where two headings read alike, the source gives them in different places. Numbered stars: 1 amine (or outer) side, 2 acyl side, 3 side chain; on linkers, the order of the positions; unused ones are H or OH. Bridge positions count the residues as written; N and C are the ends. Square brackets hold non-standard residues; d marks the D form. Peptide text beside a SMILES is read from it. * marks the point of attachment. C20 diacid = O=C(O)CCCCCCCCCCCCCCCCCCC(=O)*; γGlu = O=C(O)[C@H](CCC(=O)[*:2])N[*:1]; NMeI = CC[C@H](C)[C@H](NC)C(=O)O; Sar = CNCC(=O)O

This note sets out measurements from patent EP3046573B1, “AMYLIN ANALOGUES” (Zealand Pharma A/S, priority 2013, dated 2015).

Data set [1] has as its target T1, human calcitonin receptor (hCTR2) (Homo sapiens, UniProt P30988).
T1 construct: expressed in transfected cells
T1 sequence (P30988 25-474): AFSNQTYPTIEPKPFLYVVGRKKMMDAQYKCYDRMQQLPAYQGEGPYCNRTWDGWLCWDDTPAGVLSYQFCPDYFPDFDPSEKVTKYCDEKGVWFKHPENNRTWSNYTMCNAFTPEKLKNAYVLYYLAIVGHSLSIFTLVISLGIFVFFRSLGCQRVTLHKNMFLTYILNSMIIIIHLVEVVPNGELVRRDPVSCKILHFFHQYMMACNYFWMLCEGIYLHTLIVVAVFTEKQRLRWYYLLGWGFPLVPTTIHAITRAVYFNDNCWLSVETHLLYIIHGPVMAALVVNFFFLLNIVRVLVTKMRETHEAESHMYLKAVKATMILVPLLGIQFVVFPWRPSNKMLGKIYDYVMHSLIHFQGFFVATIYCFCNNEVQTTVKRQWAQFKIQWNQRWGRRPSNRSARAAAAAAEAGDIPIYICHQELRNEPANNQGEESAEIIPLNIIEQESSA
Kind of data set: hCTR2 assay: induction of cAMP (AlphaScreen cAMP Assay kit) in COS7 cells expressing hCTR2. In kind it is cell-based. In a few lines: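 Stable RAMP-naive COS7 clone expressing hCTR2 was stimulated with increasing peptide concentrations in Tyrode buffer (pH 7.4) with 100 µM IBMX and 0.1% casein for 15 min at 37° C. Cells were lysed and cAMP measured by AlphaScreen. EC50 and efficacy relative to pramlintide came from 4PL curve fits.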

A short description of data set [2]: Solubility assessment (turbidity absorbance at 325 nm). Format: physicochemical. The note with it: stock 2 mg/ml diluted 1:1, ambient temperature (typically 25°C), n=1; for Solubility, Acetate buffer pH 4: 100 mM acetate buffer pH 4.0; for Solubility, Acetate buffer pH 5: 100 mM acetate buffer pH 5.0; for Solubility, Histidine buffer pH 6: 100 mM histidine buffer pH 6.0; for Solubility, Histidine buffer pH 7: 100 mM histidine buffer pH 7.0; for Solubility, Phosphate buffer pH 6: 100 mM phosphate buffer pH 6.0; for Solubility, Phosphate buffer pH 7: 100 mM phosphate buffer pH 7.0; for Solubility, Phosphate buffer pH 7.5: 100 mM phosphate buffer pH7.5. The procedure, abridged:
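Peptide stock (2 mg/ml, water pH 2.5) diluted 1:1 into 100 mM acetate (pH 4.0, 5.0), histidine (pH 6.0, 7.0) or phosphate (pH 6.0–7.5) buffer; absorbance at 325 nm read at about 25°C, n=1. A325 ≤ 0.02 taken as solubility ≥ 1 mg/ml.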

For the compound `CC[C@H](C)[C@@H](C(=O)N[C@@H](CC(C)C)C(=O)N[C@@H](CO)C(=O)N[C@@H](CO)C(=O)N[C@H](C(=O)N[C@@H](CC(=O)O)C(=O)N[C@H](C(=O)NCC(=O)N[C@@H](CO)C(=O)N[C@@H](CC(=O)O)C(=O)N[C@H](C(=O)N1CCC[C@H]1C(N)=O)[C@@H](C)O)C(C)C)[C@@H](C)O)N(C)C(=O)[C@H](C)NC(=O)CN(C)C(=O)[C@H](Cc1ccccc1)NC(=O)[C@H](CO)NC(=O)[C@H](CO)NC(=O)[C@H](CCCNC(=N)N)NC(=O)[C@H](Cc1c[nH]cn1)NC(=O)[C@H](CC(C)C)NC(=O)[C@H](Cc1ccccc1)NC(=O)[C@H](CCC(=O)O)NC(=O)[C@H](C)NC(=O)[C@H](CC(C)C)NC(=O)[C@H](CCCNC(=N)N)NC(=O)[C@H](CCC(N)=O)NC(=O)[C@@H](NC(=O)[C@H](C)NC(=O)[C@@H]1CSSC[C@H](NC(=O)[C@H](CCCNC(=N)N)NC(=O)CC[C@H](NC(=O)CCCCCCCCCCCCCCCCCCC(=O)O)C(=O)O)C(=O)N[C@@H](CC(N)=O)C(=O)N[C@@H]([C@@H](C)O)C(=O)N[C@@H](C)C(=O)N[C@@H]([C@@H](C)O)C(=O)N1)[C@@H](C)O` [Compound 81, [19CD]-isoGlu-RC()NTATC()ATQRLAEFLHRSSF-Gly(Me)-A-Ile(Me)-LSSTDVGSDTP-NH2] ({C20 diacid-γGlu}-RCNTATCATQRLAEFLHRSSF[Sar]A[NMeI]LSSTDVGSDTP-NH2; disulfide 2-7), in data set [1] (cAMP induction in COS7 cells expressing hCTR2, average of a minimum of 3 determinations, read-out: hCTR2 EC50), the EC50 is 0.057 nM. For the same compound, in data set [2], the “Solubility, Acetate buffer pH 4” value is recorded as “SS (SS indicates solubility ≥ 1mg/ml)”; the “Solubility, Acetate buffer pH 5” value is “SS (SS indicates solubility ≥ 1mg/ml)”; the “Solubility, Histidine buffer pH 6” value was “SS (SS indicates solubility ≥ 1mg/ml)”; the “Solubility, Histidine buffer pH 7” value was “SS (SS indicates solubility ≥ 1mg/ml)”. Also, in data set [2], the “Solubility, Phosphate buffer pH 6” value is reported as “SS (SS indicates solubility ≥ 1mg/ml)”; the “Solubility, Phosphate buffer pH 7” value is reported as “SS (SS indicates solubility ≥ 1mg/ml)”; the “Solubility, Phosphate buffer pH 7.5” value was “SS (SS indicates solubility ≥ 1mg/ml)”.
Turning to `CC[C@H](C)[C@@H](C(=O)N[C@@H](CC(C)C)C(=O)N[C@@H](CO)C(=O)N[C@@H](CO)C(=O)N[C@H](C(=O)N[C@@H](CC(N)=O)C(=O)N[C@H](C(=O)NCC(=O)N[C@@H](CO)C(=O)N[C@@H](CC(N)=O)C(=O)N[C@H](C(=O)N1CCC[C@H]1C(N)=O)[C@@H](C)O)C(C)C)[C@@H](C)O)N(C)C(=O)[C@H](C)NC(=O)CN(C)C(=O)[C@H](Cc1ccccc1)NC(=O)[C@H](CC(N)=O)NC(=O)[C@H](CC(N)=O)NC(=O)[C@H](CO)NC(=O)[C@H](CO)NC(=O)[C@H](CCCNC(=N)N)NC(=O)[C@H](Cc1c[nH]cn1)NC(=O)[C@H](CC(C)C)NC(=O)[C@H](Cc1ccccc1)NC(=O)[C@H](CCC(=O)O)NC(=O)[C@H](C)NC(=O)[C@H](CC(C)C)NC(=O)[C@H](CCCNC(=N)N)NC(=O)[C@H](CCC(N)=O)NC(=O)[C@@H](NC(=O)[C@H](C)NC(=O)[C@@H]1CSSC[C@H](NC(=O)[C@H](CCCNC(=N)N)NC(=O)[C@H](Cc2c[nH]cn2)NC(=O)CC[C@H](NC(=O)CCCCCCCCCCCCCCCCCCC(=O)O)C(=O)O)C(=O)N[C@@H](CC(N)=O)C(=O)N[C@@H]([C@@H](C)O)C(=O)N[C@@H](C)C(=O)N[C@@H]([C@@H](C)O)C(=O)N1)[C@@H](C)O` [Compound 85, [19CD]-isoGlu-HRC()NTATC()ATQRLAEFLHRSSNNF-Gly(Me)-A-Ile(Me)-LSSTNVGSNTP-NH2] ({C20 diacid-γGlu}-HRCNTATCATQRLAEFLHRSSNNF[Sar]A[NMeI]LSSTNVGSNTP-NH2; disulfide 3-8), the EC50 in data set [1] is 0.083 nM. Further, in data set [2], the “Solubility, Acetate buffer pH 4” value is listed as “SS (SS indicates solubility ≥ 1mg/ml)”; the “Solubility, Acetate buffer pH 5” value is “SS (SS indicates solubility ≥ 1mg/ml)”; the “Solubility, Histidine buffer pH 6” value was “SS (SS indicates solubility ≥ 1mg/ml)”; the “Solubility, Histidine buffer pH 7” value is given as “SS (SS indicates solubility ≥ 1mg/ml)”. In data set [2], the “Solubility, Phosphate buffer pH 6” value is recorded as “SS (SS indicates solubility ≥ 1mg/ml)”; the “Solubility, Phosphate buffer pH 7” value is recorded as “SS (SS indicates solubility ≥ 1mg/ml)”; the “Solubility, Phosphate buffer pH 7.5” value is listed as “SS (SS indicates solubility ≥ 1mg/ml)”.
As for `CC[C@H](C)[C@@H](C(=O)N[C@@H](CC(C)C)C(=O)N[C@@H](CO)C(=O)N[C@@H](CO)C(=O)N[C@H](C(=O)N[C@@H](CC(N)=O)C(=O)N[C@H](C(=O)NCC(=O)N[C@@H](CO)C(=O)N[C@@H](CC(N)=O)C(=O)N[C@H](C(=O)N1CCC[C@H]1C(N)=O)[C@@H](C)O)C(C)C)[C@@H](C)O)N(C)C(=O)[C@H](C)NC(=O)CN(C)C(=O)[C@H](Cc1ccccc1)NC(=O)[C@H](CC(N)=O)NC(=O)[C@H](CC(N)=O)NC(=O)[C@H](CO)NC(=O)[C@H](CO)NC(=O)[C@H](CCCNC(=N)N)NC(=O)[C@H](Cc1c[nH]cn1)NC(=O)[C@H](CC(C)C)NC(=O)[C@H](Cc1ccccc1)NC(=O)[C@H](CCC(=O)O)NC(=O)[C@H](C)NC(=O)[C@H](CC(C)C)NC(=O)[C@H](CCCNC(=N)N)NC(=O)[C@H](CCC(N)=O)NC(=O)[C@@H](NC(=O)[C@H](C)NC(=O)[C@@H]1CSSC[C@H](NC(=O)[C@H](CCCCN)NC(=O)[C@H](CCCNC(=N)N)NC(=O)CC[C@H](NC(=O)CCCCCCCCCCCCCCCCCCC(=O)O)C(=O)O)C(=O)N[C@@H](CC(N)=O)C(=O)N[C@@H]([C@@H](C)O)C(=O)N[C@@H](C)C(=O)N[C@@H]([C@@H](C)O)C(=O)N1)[C@@H](C)O` [Compound 86, [19CD]-isoGlu-RKC()NTATC()ATQRLAEFLHRSSNNF-Gly(Me)-A-Ile(Me)-LSSTNVGSNTP-NH2] ({C20 diacid-γGlu}-RKCNTATCATQRLAEFLHRSSNNF[Sar]A[NMeI]LSSTNVGSNTP-NH2; disulfide 3-8), the EC50 in data set [1] amounted to 0.065 nM. Moreover, in data set [2], the “Solubility, Acetate buffer pH 4” value is given as “SS (SS indicates solubility ≥ 1mg/ml)”; the “Solubility, Acetate buffer pH 5” value is “SS (SS indicates solubility ≥ 1mg/ml)”; the “Solubility, Histidine buffer pH 6” value is on record as “SS (SS indicates solubility ≥ 1mg/ml)”; the “Solubility, Histidine buffer pH 7” value is recorded as “SS (SS indicates solubility ≥ 1mg/ml)”. For the same compound, in data set [2], the “Solubility, Phosphate buffer pH 6” value is “SS (SS indicates solubility ≥ 1mg/ml)”; the “Solubility, Phosphate buffer pH 7” value is on record as “SS (SS indicates solubility ≥ 1mg/ml)”; the “Solubility, Phosphate buffer pH 7.5” value is on record as “SS (SS indicates solubility ≥ 1mg/ml)”.
For the compound `CC[C@H](C)[C@@H](C(=O)N[C@@H](CC(C)C)C(=O)N[C@@H](CO)C(=O)N[C@@H](CO)C(=O)N[C@H](C(=O)N[C@@H](CC(N)=O)C(=O)N[C@H](C(=O)NCC(=O)N[C@@H](CO)C(=O)N[C@@H](CC(N)=O)C(=O)N[C@H](C(=O)N1CCC[C@H]1C(N)=O)[C@@H](C)O)C(C)C)[C@@H](C)O)N(C)C(=O)[C@H](C)NC(=O)CN(C)C(=O)[C@H](Cc1ccccc1)NC(=O)[C@H](CC(N)=O)NC(=O)[C@H](CC(N)=O)NC(=O)[C@H](CO)NC(=O)[C@H](CO)NC(=O)[C@H](CCCNC(=N)N)NC(=O)[C@H](Cc1c[nH]cn1)NC(=O)[C@H](CC(C)C)NC(=O)[C@H](Cc1ccccc1)NC(=O)[C@H](CCC(=O)O)NC(=O)[C@H](C)NC(=O)[C@H](CC(C)C)NC(=O)[C@H](CCCNC(=N)N)NC(=O)[C@H](CCC(N)=O)NC(=O)[C@@H](NC(=O)[C@H](C)NC(=O)[C@@H]1CSSC[C@H](NC(=O)[C@H](CCCCN)NC(=O)[C@H](Cc2c[nH]cn2)NC(=O)CC[C@H](NC(=O)CCCCCCCCCCCCCCCCCCC(=O)O)C(=O)O)C(=O)N[C@@H](CC(N)=O)C(=O)N[C@@H]([C@@H](C)O)C(=O)N[C@@H](C)C(=O)N[C@@H]([C@@H](C)O)C(=O)N1)[C@@H](C)O` [Compound 88, [19CD]-isoGlu-HKC()NTATC()ATQRLAEFLHRSSNNF-Gly(Me)-A-Ile(Me)-LSSTNVGSNTP-NH2] ({C20 diacid-γGlu}-HKCNTATCATQRLAEFLHRSSNNF[Sar]A[NMeI]LSSTNVGSNTP-NH2; disulfide 3-8), in data set [1], the 50% effective concentration (EC50) came to 0.069 nM. In data set [2], the “Solubility, Acetate buffer pH 4” value is on record as “SS (SS indicates solubility ≥ 1mg/ml)”; the “Solubility, Acetate buffer pH 5” value was “SS (SS indicates solubility ≥ 1mg/ml)”; the “Solubility, Histidine buffer pH 6” value is recorded as “SS (SS indicates solubility ≥ 1mg/ml)”; the “Solubility, Histidine buffer pH 7” value was “SS (SS indicates solubility ≥ 1mg/ml)”. For the same compound, in data set [2], the “Solubility, Phosphate buffer pH 6” value is “SS (SS indicates solubility ≥ 1mg/ml)”; the “Solubility, Phosphate buffer pH 7” value is reported as “SS (SS indicates solubility ≥ 1mg/ml)”; the “Solubility, Phosphate buffer pH 7.5” value was “SS (SS indicates solubility ≥ 1mg/ml)”.
